# Tests used:
# VEGFR2 and ERK = test: VEGF-induced signaling, immunoblot, PrxII knocked down HAECs; type: cell-based, human; conditions: 2 hours pretreatment, VEGF 10 minutes
# Experimental: The cells were rinsed with an ice-cold phosphate buffered saline (PBS) solution and then lysed in an extraction buffer solution containing 20 mM Hepes (pH 7.0), 1% Triton X-100, 150 mM NaCl, 10% glycerol, 1 mM EDTA, 2 mM EGTA, 1 mM DTT, 5 mM Na3VO4, 5 mM NaF, 1 mM AEBSF, aprotinin (5 μg/ml), and leupeptin (5 μg/ml). After being centrifuged at 12,000×g, the purified cell extracts were used for immunoblotting. In order to adjust the loading, the membranes were stripped by shaking them for 30 minutes at 60° C. in 67 mM Tris (pH 6.7), 2% SDS, and 100 mM 2-mercaptoethanol solution, and reprobed with an appropriate pan antibody.
# In addition, the regulatory effects of GT on the PDGFRβ- and VEGFR2-mediated signaling pathway were examined. The GT treatment in HASMCs was quite different from PDGF-induced tyrosine phosphorylation that was enhanced by the PrxII knockdown (FIG. 12a). […] Conversely, the GT treatment in HAECs restored the VEGF-dependent activation of VEGFR2 and ERK that had been diminished by the PrxII knockdown (FIG. 12b). The effects of GT in vascular cell fuction were further validated.
# Lastly, the effects of GT, a representative ETP compound, on vascular cells were compared with the effects of other compounds known as anti-oxidant compounds such as N-acetylcysteine or butylated hydroxyanisole, and the results are shown in FIG. 33. Immunoblotting was performed by pretreating HAECs in which PrxII was knocked down by injecting siRNA with each compound at the concentrations indicated in the graphs for two hours, and then treating with VEGF for 10 minutes. […] These comparative experiments led the inventors of the present invention to conclude that the distinguished […] function of the ETP compounds is clearly due to the PrxII-analogous activity, and additionally to the special chemical property of the dithioketopiperazine ring.
# NADPH oxidase (NOX) = test: NADPH oxidase activity assay (whole cell superoxide production); type: cell-based, human; conditions: HASMCs with PDGF-B and HAECs with VEGF-A; until concentrations increased up to 500 nM
# Experimental: Whole cell superoxide production was measured using an enhanced luminescence system (Diogenes, National Diagnostics). For the assay, the serum-starved cells were pre-incubated with a 100 μl Diogene reagent at 37° C. for 5 minutes. After being stimulated by the indicated growth factor, chemiluminescence was detected every second for 10 minutes with a TD-20/20 Luminometer (Turner Biosystems).
# When HASMCs and HAECs were stimulated with PDGF-B and VEGF-A, respectively, the NOX activity increased approximately twofold. […] Thus, it was seen that these ETP compounds function as hydrogen peroxide reductase capable of replacing PrxII in both vascular cells, but the mechanism was not the inhibition of hydrogen peroxide producer NOX.
# [1] = test system: human aortic smooth muscle cells (HASMCs); test: Cytotoxicity (cell viability), HASMCs; type: cell-based; conditions: compared with gliotoxin and A1 to A9
# Experimental: (§1) Most ETP compounds have been known to be cytotoxic to animal cells. Accordingly, the inventors of the present invention determined a safe concentration range of the epidithiodioxopiperazine compound or its derivatives in vascular cells. For this, human aortic smooth muscle cells (HASMCs) and human aortic endothelial cells (HAECs) were pretreated for 2 hours with various concentrations of gliotoxin or chaetocin, and A1 to A9 that are ETP derivatives according to the present invention, and cultured in a fresh medium for 24 hours followed by cell viability assay (FIGS. 6 to 10).
# SK-MEL28 melanoma cells = type: cell-based, human; conditions: at a concentration of 100 nM; tested 0, 100, 200, 500 and 1000 nM
# Experimental: Specifically, after chaetocin and chetomin was treated with SK-MEL28 melanoma cells at different concentrations (0, 100, 200, 500 and 1000 nM), the cell viability was checked, and the result is shown in FIG. 54A.
# [2] = test system: human aortic endothelial cells (HAECs); test: Cytotoxicity (cell viability), HAECs; type: cell-based; conditions: compared with gliotoxin and A1 to A9
# Experimental: as §1
# [3] = test system: yeast thioredoxin (Trx) / yeast thioredoxin reductase (TR) system; test: Peroxidase activity assay (hydrogen peroxide reduction), Trx/TR system; type: biochemical
# Experimental: (§2) The peroxidase activity assay for the epidithiodioxopiperazine derivatives according to the present invention (hereinafter, referred to as ETP compounds) was performed according to known methods [Korean Patent No. 10-0953326]. A standard peroxidase reaction for spectrophotometric assay was carried out using a 200 μl reaction mixture of 1 mM EDTA-containing 50 mM Hepes-NaOH buffer solution (pH 7.0) including 250 μM NADPH, 3 μM yeast thioredoxin (Trx), 1.5 μM yeast thioredoxin reductase (TR), 25 μM ETP compound and […] of hydrogen peroxide. For the comparison with a glutathione (GSH)-dependent peroxidase reaction, GSH (1 mM) and yeast glutathione reductase (GSH reductase; GR) (1 Unit) were added instead of yeast Trx and TR. Each reaction was initiated by adding hydrogen peroxide, and the NADPH oxidation was monitored for 12 minutes at 30° C. according to absorbance decrease at 340 nm using an Agilent UV8453 spectrophotometer (Hewlett Packard, USA). The initial reaction rate was calculated using the linear portion of the curve and expressed as the amount of NADPH oxidized per minute.
# The chemical feature of the epidithiodioxopiperazine compound of the present invention or its derivatives is the intramolecular disulfide bridge present in the epidithiodioxopiperazine ring moiety. Cellular peroxidase reduces hydrogen peroxide utilizing the electrons derived from NADPH via two electron-transfer routes, that is, Trx/TR or GSH/GR, therefore, spectrophotometric assay was performed for the hydrogen peroxide-reducing activity in the presence of each system, and the results are shown in FIGS. 1 to 5.
# [4] = test system: GSH / yeast glutathione reductase (GR) system; test: Peroxidase activity assay (hydrogen peroxide reduction), GSH/GR system; type: biochemical; conditions: 25 μM ETP compound, GSH 1 mM, GR 1 Unit
# Experimental: as §2
# The chemical feature of the epidithiodioxopiperazine compound of the present invention or its derivatives is the intramolecular disulfide bridge present in the epidithiodioxopiperazine ring moiety. […]
# B16F10 melanoma cells = test: Metastasis of B16F10 melanoma cells to lung in mouse; type: in vivo; conditions: i.p. 5 times over 10 days after i.v. injection of B16F10 cells
# Experimental: After B16F10 cells were temporarily transfected with PrxII siRNA for 24 hours and trypsinized, the cells were resuspended in a Hank's balanced salt solution (HBSS). The cell suspension was injected by intravenous injection to a C57/BL6 mouse (1×10^6 cells per mouse). The mouse was sacrified after 10 days, and the lung was removed after transcardia perfusion-fixation with a heparinized saline solution including 3.7% formaldehyde. The removed lung was paraffin embedded and sectioned using a rotary microtome (Leica RM2255). Two serial tissue sections (4 μm in thickness) were stained with haematoxylin and eosin. The melanoma tumor nodules metastasized from the surface of the lung and the HE-stained tissue sections were counted. In order to verify the effects of gliotoxin (GT), chaetocin and chetomin, the melanoma cells were intravenously injected to the C57/BL6 mouse, and then gliotoxin (300 mg/kg) was intraperitoneally injected for 5 times over 10 days.
# SK-MEL-28 (SK28) cells = test: Melanoma proliferation and migration assay, SK28; type: cell-based, human; conditions: 100 nM, 1 hour pretreatment
# Experimental: The extent of cell proliferation was measured using a WST-1 cell proliferation assay kit (Roche Diagnostics, USA) according to the protocol of the manufacturer. The number of cells was expressed as an absorbance value at 450 nm averaged from 3 wells after subtracting the turbidity at 600 nm. The chemotactic transmigration assay was performed in a 24-well Transwell culture chamber (Costar; polycarbonate membrane insert with 8-μm pore size). The bottom of the insert was coated with gelatin B (1 mg/ml) and air-dried for 1 hour. Retroviruses or transfection complexes were treated to melanoma cells (6×10^3). After 24 hours, the infected or transfected melanoma cells were serum-starved for 18 hours. A 20% FBS solution was added to bottom chambers including a basal medium containing 0.5% BSA. The upper chamber wells were each filled with a basal medium including 0.5% BSA. The Transwell chamber was incubated for 12 hours in a 37° C./5% CO2 incubator. After the incubation, the non-migrating cells at the top of the filter were removed. The cells that migrated onto the bottom of filter were fixed and stained with 0.6% hematoxylin and 0.5% eosin. The stained cells were photographed and counted. The number of migrating cells was averaged from 3 wells. […]
compound,measurement,setting,value
CC(=O)N[C@@H](CS)C(=O)O [N-acetylcysteine],VEGF-dependent activation of VEGFR2 and ERK,VEGFR2 and ERK,did not induce
COc1ccc(O)c(C(C)(C)C)c1 [butylated hydroxyanisole],VEGF-dependent activation of VEGFR2 and ERK,VEGFR2 and ERK,did not induce
CN1C(=O)[C@@]23C[C@]4([C@]56C[C@@]78SS[C@@](CO)(C(=O)N7[C@H]5Nc5ccccc56)N(C)C8=O)c5ccccc5N[C@@H]4N2C(=O)[C@]1(CO)SS3 [chaetocin],NOX activity,NADPH oxidase (NOX),did not inhibit
same,relative toxicity to HASMCs,[1],relatively less toxic
same,toxicity (cell viability),SK-MEL28 melanoma cells,toxicity was not shown
same,relative toxicity to HAECs,[2],relatively less toxic
CN1C(=O)[C@]2(Cc3cn([C@]45C[C@@]67SS[C@@](CO)(C(=O)N6[C@H]4Nc4ccccc45)N(C)C7=O)c4ccccc34)SS[C@@]1(CO)C(=O)N2C [chetomin],activity in the presence of a Trx/TR system relative to the activity of GT,[3],approximately two-fold higher
same,hydrogen peroxide-reducing activity in the presence of a Trx/TR system,"[3]; 25 μM ETP compound, 30° C., NADPH oxidation at 340 nm",8.62 ± 0.51 nmol/min
same,hydrogen peroxide-reducing activity in the presence of a GSH/GR system,[4],2.53 ± 0.79 nmol/min
same,metastasis of B16F10 melanoma cells to lung (tumor nodules),B16F10 melanoma cells,significantly reduced
same,"proliferation and migration responding to serum stimulation, SK28",SK-MEL-28 (SK28) cells,effectively impeded
same,toxicity (cell viability),SK-MEL28 melanoma cells,toxicity was not shown
